Patent US7067537B2, “Substituted thiazole derivatives bearing 3-pyridyl groups, process for preparing the same and use thereof” (Takeda Pharmaceutical Company Limited, priority 2000, dated 2006)
Structures can show the parent of a compound that is named as a salt.

Tests used:
Rat C17,20-lyase = target: T1, Rat C17,20-lyase (Rattus norvegicus, UniProt P11715); assay: Assay of steroid C17,20-lyase-inhibitory activity in rat (testis microsome, TLC of 3H-labelled products); format: biochemical; conditions: microsome from orchis of 13-week-old male SD rat; [1.2-3H]-17α-hydroxyprogesterone 10 nM, NADPH; pH 7.4; 37° C., 7 min; read-out: In vitro enzyme inhibitory activity (IC50) Rat C17,20-lyase
T1 construct: The orchis was homogenized and centrifuged to prepare a microsome; from tissue; host or cells: testis (orchis) microsomes of 13-week-old male SD rat
T1 sequence (P11715 1-507): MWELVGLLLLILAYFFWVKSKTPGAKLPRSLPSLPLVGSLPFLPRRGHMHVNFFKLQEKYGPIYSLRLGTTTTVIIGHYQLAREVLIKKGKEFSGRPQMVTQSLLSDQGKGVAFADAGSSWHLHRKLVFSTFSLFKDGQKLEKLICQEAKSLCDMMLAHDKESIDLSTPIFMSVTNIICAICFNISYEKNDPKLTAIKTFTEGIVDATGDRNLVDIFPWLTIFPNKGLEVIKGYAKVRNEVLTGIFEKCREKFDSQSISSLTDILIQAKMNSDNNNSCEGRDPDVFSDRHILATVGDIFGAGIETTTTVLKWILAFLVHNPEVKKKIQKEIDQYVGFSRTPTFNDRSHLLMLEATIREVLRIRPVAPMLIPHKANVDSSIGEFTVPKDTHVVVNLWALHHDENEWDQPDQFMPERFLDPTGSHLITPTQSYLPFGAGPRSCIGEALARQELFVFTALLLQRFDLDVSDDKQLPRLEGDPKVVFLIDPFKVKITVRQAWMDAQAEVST
Protocol: Assay of Steroid C17,20-lyase-inhibitory Activity in Rat
The assay was performed according to The Prostate, Vol. 26, 140–150 (1995). The orchis was removed from 13-week-old male SD rat. The orchis was homogenized and centrifuged to prepare a microsome. The [1.2-^3H]-17α-hydroxyprogesterone having a final concentration of 10 nM, NADPH solution and the test compound were was dissolved in a 100 mM phosphate buffer solution (10 μl, pH 7.4). Microsome protein (7 μg/10 μl) was added and the mixture was incubated at 37° C. for 7 min. Ethyl acetate (40 μl) was added and the mixture was centrifuged, and the substrate and the product (androstenedione and testosterone) in the supernatant were separated by silica gel thin layer chromatography (TLC). The spot was detected and quantitatively assayed by a BAS 2000 bioimage analyzer. Taking the production amount when the test compound was not added (control) as 100%, the concentration (IC50) of the compound necessary for 50% inhibition of the product amount relative to the control was calculated.

Row | melting point [°C] | IC50 (Rat C17,20-lyase) [nM] | Compound
1 | 154 to 155 | – | CC(=O)Nc1cccc(-c2csc(-c3cnccc3C(F)(F)F)n2)c1.Cl
2 | 205 to 207 | – | CS(=O)(=O)Nc1ccc(-c2csc(-c3cnccc3C(F)(F)F)n2)cc1.Cl
3 | 231 to 233 | – | COc1cccc(-c2csc(-c3cccnc3)n2)c1 (as salt: HBr) [Compound 49]
4 | 225 to 227 | – | Fc1ccc(-c2nc(-c3cccnc3)cs2)cc1 (as salt: HBr) [Compound 136]
5 | 93 to 95 | – | COc1ccc(-c2csc(-c3cnccc3C(F)(F)F)n2)cc1 (as salt: HCl) [Compound 64]
6 | 154 | – | COc1ccncc1-c1nc(-c2ccc(C)cc2C)cs1 (as salt: HCl) [Compound 85]
7 | 180 to 183 | – | Cc1ccncc1-c1csc(-c2ccc(F)cc2)n1 (as salt: HCl) [Compound 137, 3-[2-(4-fluorophenyl)-1,3-thiazol-4-yl]-4-methylpyridine]
8 | 162 to 165 | – | CS(=O)(=O)Nc1cccc(-c2csc(-c3cnccc3C(F)(F)F)n2)c1 (as salt: hydrochloride) [Compound 161, N-(3-{2-[4-(trifluoromethyl)pyridin-3-yl]-1,3-thiazol-4-yl}phenyl)methanesulfonamide]
9 | – | 33 | COc1cccc(-c2csc(-c3cccnc3)n2)c1 [Compound 49]
10 | 69 to 71 | < 10 | FC(F)(F)c1ccncc1-c1nc(-c2ccc(Br)cc2)cs1 [Compound 53]
11 | – | < 10 | COc1ccc(-c2csc(-c3cnccc3C(F)(F)F)n2)cc1 [Compound 64]
12 | 119 | – | Cc1ccncc1-c1nc(-c2ccc(Cl)cc2)cs1 [Compound 74, 3-[4-(4-chlorophenyl)-1,3-thiazol-2-yl]-4-methylpyridine]
13 | 129 | < 10 | Cc1ccncc1-c1nc(-c2ccc(F)cc2)cs1 [Compound 78, 3-[4-(4-fluorophenyl)-1,3-thiazol-2-yl]-4-methylpyridine]
14 | – | 30 | COc1ccncc1-c1nc(-c2ccc(C)cc2C)cs1 [Compound 85]
15 | 98 | < 10 | Cc1ccc(-c2csc(-c3cnccc3C)n2)cc1 [Compound 103]
16 | 192 to 195 | – | Cc1ccncc1-c1csc(-c2ccc(S(N)(=O)=O)cc2)n1 [Compound 135, 4-[4-(4-methyl-pyridin-3-yl)-1,3-thiazol-2-yl]benzenesulfonamide]
17 | – | 14 | Fc1ccc(-c2nc(-c3cccnc3)cs2)cc1 [Compound 136]
18 | 202 | – | NC(=O)CNc1ccncc1-c1nc(-c2ccc(Cl)cc2)cs1 [Compound 144]
19 | 146 | – | CC(C)(O)c1ccncc1-c1nc(-c2ccc(Cl)cc2)cs1 [Compound 145, 2-{3-[4-(4-chlorophenyl)-1,3-thiazol-2-yl]pyridin-4-yl}propan-2-ol]
20 | 195 | – | CN(C)C(=O)c1ccncc1-c1nc(-c2ccc(Cl)cc2)cs1 [Compound 146, 3-[4-(4-chlorophenyl)-1,3-thiazol-2-yl]-N,N-dimethylisonicotinamide]
21 | 201 | – | NC(=O)c1ccncc1-c1nc(-c2ccc(Cl)cc2)cs1 [Compound 147]

Row | melting point [°C] | IC50 (Rat C17,20-lyase) [nM] | Compound
22 | 205 | – | CNC(=O)c1ccncc1-c1nc(-c2ccc(Cl)cc2)cs1 [Compound 148]
23 | 146 | – | Cc1ccncc1-c1nc(-c2ccc(Cl)cc2)c(Cl)s1 [Compound 150, 3-[5-chloro-4-(4-chlorophenyl)-1,3-thiazol-2-yl]-4-methylpyridine]
24 | 96 | – | Cc1ccc(-c2nc(-c3cnccc3C)sc2F)cc1 [Compound 153, 3-[5-fluoro-4-(4-methylphenyl)-1,3-thiazol-2-yl]-4-methylpyridine]
25 | 219 | – | Cc1ccncc1-c1nc(-c2ccc(S(N)(=O)=O)cc2)cs1 [Compound 154, 4-[2-(4-methylpyridin-3-yl)-1,3-thiazol-4-yl]benzenesulfonamide]
26 | 217 | – | NS(=O)(=O)c1ccc(-c2csc(-c3cnccc3C(F)(F)F)n2)cc1 [Compound 155, 4-{2-[4-(trifluoromethyl)pyridin-3-yl]-1,3-thiazol-4-yl}benzenesulfonamide]
27 | 71 to 72 | – | Nc1ccc(-c2csc(-c3cnccc3C(F)(F)F)n2)cc1 [Compound 156, 4-{2-[4-(trifluoromethyl)pyridin-3-yl]-1,3-thiazol-4-yl}aniline]
28 | > 300 | – | Cc1ccncc1-c1nc(-c2ccc(C(=O)O)cc2)cs1 [Compound 163, 4-[2-(4-methylpyridin-3-yl)-1,3-thiazol-4-yl]benzoic acid]
29 | 192 to 193 | – | NC(=O)c1ccc(-c2csc(-c3cnccc3C(F)(F)F)n2)cc1 [Compound 164, 4-{2-[4-(trifluoromethyl)pyridin-3-yl]-1,3-thiazol-4-yl}benzamide]
30 | 222 to 225 | – | Cc1ccncc1-c1nc(-c2ccc(C(N)=O)cc2)cs1 [Compound 165, 4-[2-(4-methylpyridin-3-yl)-1,3-thiazol-4-yl]benzamide]
31 | 106 to 108 | – | Cc1ccncc1-c1csc(-c2cccc(C(=O)N(C)C)c2)n1 [Example 27, N,N-dimethyl-3-[4-(4-methylpyridin-3-yl)-1,3-thiazol-2-yl]benzamide]
32 | 155 to 157 | – | Cc1ccncc1-c1csc(-c2ccc(C(N)=O)cc2)n1 [Example 28, 4-[4-(4-methylpyridin-3-yl)-1,3-thiazol-2-yl]benzamide]
33 | 115 | – | CNC(=O)c1ccc(-c2nc(-c3cnccc3C)cs2)cc1 [Example 29, N-methyl-4-[4-(4-methylpyridin-3-yl)-1,3-thiazol-2-yl]benzamide]
34 | 140 to 143 | – | CNC(=O)c1ccc(C)c(-c2nc(-c3cnccc3C)cs2)c1 [Example 30, N, 4-dimethyl-3-[4-(4-methylpyridin-3-yl)-1,3-thiazol-2-yl]benzamide]
35 | 180 to 182 | – | Cc1ccncc1-c1csc(-c2cc(C(=O)N(C)C)ccc2C)n1 [Example 31, N,N,4-trimethyl-3-[4-(4-methylpyridin-3-yl)-1,3-thiazol-2-yl]benzamide]
36 | 149 to 150 | – | Cc1ccncc1-c1csc(-c2cc(C(=O)N3CCCC3)ccc2C)n1 [Example 32, 4-methyl-3-{2-[2-methyl-5-(pyrrolidine-1-ylcarbonyl)phenyl]-1,3-thiazol-4-yl}pyridine]
37 | 195 to 196 | – | CNC(=O)c1ccc(F)c(-c2nc(-c3cnccc3C)cs2)c1 [Example 33, 4-fluoro-N-methyl-3-[4-(4-methylpyridin-3-yl)-1,3-thiazol-2-yl]benzamide]
38 | 127 to 129 | – | CNC(=O)c1cc(-c2nc(-c3cnccc3C)cs2)ccc1Cl [Example 34, 2-chloro-N-methyl-5-[4-(4-methylpyridin-3-yl)-1,3-thiazol-2-yl]benzamide]
39 | 205 to 207 | – | CC(=O)Nc1ccc(-c2nc(-c3cnccc3C)cs2)cc1 [Example 36, N-{4-[4-(4-methylpyridin-3-yl)-1,3-thiazol-2-yl]phenyl}acetamide]
40 | 127 to 129 | – | Cc1ccncc1-c1csc(-c2cc(NC=O)ccc2C)n1 [Example 37, 4-methyl-3-[4-(4-methylpyridin-3-yl)-1,3-thiazol-2-yl]phenylformamide]
41 | 151 to 152 | – | CC(=O)Nc1ccc(C)c(-c2nc(-c3cnccc3C)cs2)c1 [Example 38, N-{4-methyl-3-[4-(4-methylpyridin-3-yl)-1,3-thiazol-2-yl]phenyl}acetamide]
